Laboratory results: US20260042762A1 (Kymera Therapeutics, Inc., priority 2018, published 2026)

Biological target: T1, MerTK (Homo sapiens, UniProt Q12866)
T1 construct: endogenous in cells; host or cells: Jurkat cells
T1 sequence (Q12866 21-999): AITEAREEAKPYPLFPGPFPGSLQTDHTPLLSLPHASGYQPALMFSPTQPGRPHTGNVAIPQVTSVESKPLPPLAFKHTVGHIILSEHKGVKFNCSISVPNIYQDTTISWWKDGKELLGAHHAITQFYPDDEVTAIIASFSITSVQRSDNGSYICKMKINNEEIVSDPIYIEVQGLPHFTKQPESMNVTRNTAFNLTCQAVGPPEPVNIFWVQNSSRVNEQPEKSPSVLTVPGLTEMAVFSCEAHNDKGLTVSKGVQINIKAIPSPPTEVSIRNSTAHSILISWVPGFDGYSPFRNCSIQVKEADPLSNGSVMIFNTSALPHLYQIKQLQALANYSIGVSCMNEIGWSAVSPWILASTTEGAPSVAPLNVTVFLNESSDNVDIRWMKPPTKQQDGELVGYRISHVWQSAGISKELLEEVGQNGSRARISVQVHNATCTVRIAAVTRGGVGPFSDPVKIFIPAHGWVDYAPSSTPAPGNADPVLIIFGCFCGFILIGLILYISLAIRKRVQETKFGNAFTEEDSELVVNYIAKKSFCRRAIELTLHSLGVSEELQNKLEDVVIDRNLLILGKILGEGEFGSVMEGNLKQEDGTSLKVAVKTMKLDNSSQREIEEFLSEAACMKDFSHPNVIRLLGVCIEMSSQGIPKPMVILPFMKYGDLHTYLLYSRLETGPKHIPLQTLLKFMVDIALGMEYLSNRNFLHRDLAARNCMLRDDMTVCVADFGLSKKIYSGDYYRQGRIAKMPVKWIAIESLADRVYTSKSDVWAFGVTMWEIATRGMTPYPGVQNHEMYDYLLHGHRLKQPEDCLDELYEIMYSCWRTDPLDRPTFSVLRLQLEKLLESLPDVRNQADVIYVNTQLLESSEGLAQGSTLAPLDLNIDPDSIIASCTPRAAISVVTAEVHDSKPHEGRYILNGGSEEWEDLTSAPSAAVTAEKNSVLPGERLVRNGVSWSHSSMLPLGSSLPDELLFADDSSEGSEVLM
Assay: MerTk degradation in Jurkat cells (Western blot)
Format: cell-based
Conditions: Jurkat, 4 h, 0.001-1 μM, 4 hour-incubation at 37° C., read-out: Jurkat Max % MerTK Degradation
Outline: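 MerTK degradation was read by near-infrared Western blot, normalized to actin, in BCA-quantified lysates of Jurkat cells exposed to 0.001-1 μM compound for 4 h at 37 °C.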

Row | SMILES | Dmax [%]
1 | Cn1c(=O)n(C2CCC(=O)NC2=O)c2ccc(CCN3CCC(OCCN4CCN(Cc5ccc(-c6cn([C@H]7CC[C@H](O)CC7)c7nc(NCCC(F)(F)F)ncc67)cc5)CC4)C3)cc21 (stereo partly drawn) [I-124, 3-(3-methyl-2-oxo-5-[2-[3-(2-[4-[(4-[7-[trans-4-hydroxycyclohexyl]-2-[(3,3,3-trifluoropropyl)amino]-7H-pyrrolo[2,3-d]pyrimidin-5-yl]phenyl)methyl]piperazin-1-yl]ethoxy)pyrrolidin-1-yl]ethyl]-2,3-dihydro-1H-1,3-benzodiazol-1-y1)piperidine-2,6-dione; tris(formic acid)] | > 50
2 | O=C1CC[C@H](n2c3ccc(CCCOCCOCCN4CCN(Cc5ccc(-c6cn([C@H]7CC[C@H](O)CC7)c7nc(NCCC(F)(F)F)ncc67)cc5)CC4)cc3c3cccnc32)C(=O)N1 [I-125, 3-(6-[3-[2-(2-[4-[(4-[7-[trans-4-hydroxycyclohexyl]-2-[(3,3,3-trifluoropropyl)amino]-7H-pyrrolo[2,3-d]pyrimidin-5-yl]phenyl)methyl]piperazin-1-yl]ethoxy)ethoxy]propyl]-9H-pyrido[2,3-b]indol-9-y1)piperidine-2,6-dione] | > 50
3 | O=C1CC[C@H](n2c3ccccc3c3c(CCCOCCOCCN4CCN(Cc5ccc(-c6cn([C@H]7CC[C@H](O)CC7)c7nc(NCCC(F)(F)F)ncc67)cc5)CC4)ccnc32)C(=O)N1 [I-126, 3-(4-[3-[2-(2-[4-[(4-[7-[trans-4-hydroxycyclohexyl]-2-[(3,3,3-trifluoropropyl)amino]-7H-pyrrolo[2,3-d]pyrimidin-5-yl]phenyl)methyl]piperazin-1-yl]ethoxy)ethoxy]propyl]-9H-pyrido[2,3-b]indol-9-yl)piperidine-2,6-dione] | > 50

More lines, now with the values ahead:

Row | Dmax [%] | SMILES
4 | 20 to 50 | O=C1CC[C@H](n2c3cc(CCCOCCOCCN4CCN(Cc5ccc(-c6cn([C@H]7CC[C@H](O)CC7)c7nc(NCCC(F)(F)F)ncc67)cc5)CC4)ccc3c3cccnc32)C(=O)N1 [I-127, 3-(7-[3-[2-(2-[4-[(4-[7-[trans-4-hydroxycyclohexy1]-2-[(3,3,3-trifluoropropyl)amino]-7H-pyrrolo[2,3-d]pyrimidin-5-yl]phenyl)methyl]piperazin-1-yl]ethoxy)ethoxy]propyl]-9H-pyrido[2,3-b]indol-9-yl)piperidine-2,6-dione]
5 | 20 to 50 | Cn1c(=O)n([C@H]2CCC(=O)NC2=O)c2ccc(CCN3CC(OCCN4CCN(Cc5ccc(-c6cn([C@H]7CC[C@H](O)CC7)c7nc(NCCC(F)(F)F)ncc67)cc5)CC4)C3)cc21 [I-128, 3-(3-methyl-2-oxo-5-[2-[3-(2-[4-[(4-[7-[trans-4-hydroxycyclohexyl]-2-[(3,3,3-trifluoropropyl)amino]pyrrolo[2,3-d]pyrimidin-5-yl]phenyl)methyl]piperazin-1-yl]ethoxy)azetidin-1-yl]ethyl]-1,3-benzodiazol-1-y1)piperidine-2,6-dione]
6 | > 50 | Cn1c(=O)n([C@H]2CCC(=O)NC2=O)c2ccc(CCOCCN3CC(N4CCN(Cc5ccc(-c6cn([C@H]7CC[C@H](O)CC7)c7nc(NCCC(F)(F)F)ncc67)cc5)CC4)C3)cc21 [I-129, 3-(3-methyl-2-oxo-5-[2-[2-(3-[4-[(4-[7-[trans-4-hydroxycyclohexy1]-2-[(3,3,3-trifluoropropyl)amino]-7H-pyrrolo[2,3-d]pyrimidin-5-y1]phenyl)methyl]piperazin-1-yl]azetidin-1-yl)ethoxy]ethyl]-2,3-dihydro-1H-1,3-benzodiazol-1-y1)piperidine-2,6-dione; formic acid]
7 | > 50 | Cn1c(=O)n([C@H]2CCC(=O)NC2=O)c2ccc(CCOCCN3CCC(N4CCN(Cc5ccc(-c6cn([C@H]7CC[C@H](O)CC7)c7nc(NCCC(F)(F)F)ncc67)cc5)CC4)CC3)cc21 [I-130, 3-(3-methyl-2-oxo-5-[2-[2-(4-[4-[(4-[7-[trans-4-hydroxycyclohexyl]-2-[(3,3,3-trifluoropropyl)amino]-7H-pyrrolo[2,3-d]pyrimidin-5-yl]phenyl)methyl]piperazin-1-yl]piperidin-1-y1)ethoxy]ethyl]-2,3-dihydro-1H-1,3-benzodiazol-1-y1)piperidine-2,6-dione]
